For series [1], the system named is Respiratory Syncytial Virus. Description: In vitro screening for activity against RSV (tetrazolium-based colorimetric assay, protection against viral cytopathology). It counts as cell-based. To be noted: human respiratory syncytial virus. The procedure, abridged:
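HeLa cells in Eagle's Basal Medium with 5% FCS and 20 mM Hepes, ~100 TCID50 RSV, five five-fold compound dilutions in triplicate with mock-infected row for cytotoxicity; 7 days at 37 °C, 5% CO2. MTT formazan read at 540 minus 690 nm; EC50 and CC50 from dose-response curves, SI = CC50/EC50.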

Setting [2] is: 168 h, Table 5a, RSV in HeLa cells, MTT, seven days after infection, pEC50 = -log of EC50 in molar units, read-out: Activity (converted).
The mark [3] stands for this setting: 168 h, Table 1, RSV in HeLa cells, MTT, seven days after infection, pEC50 = -log of EC50 in molar units, read-out: Activity (converted).
[4] abbreviates: 168 h, Table 3, RSV in HeLa cells, MTT, seven days after infection, pEC50 = -log of EC50 in molar units, read-out: Activity (converted).
Setting [5] is: Table 6, numeric activity values, pEC50 (−log of EC50 in molar units), read-out: Activity (converted).
Where [6] appears, read: 168 h, Table 5b, RSV in HeLa cells, MTT, seven days after infection, pEC50 = -log of EC50 in molar units, read-out: Activity (converted).

SMILES strings stand for the structures. Like-named read-outs stand apart in the source and are kept apart here.

In general, melting point refers to the temperature of the solid-liquid transition.

Consider `CNc1nc2ccc(CN(CCO)c3cccc(C)c3)cc2n1Cc1nc(C)ccc1O` [Compound 195, 2-(6-{[(2-hydroxy-ethyl)-m-tolyl-amino]-methyl}-2-methylamino-benzoimidazol-1-ylmethyl)-6-methyl-pyridin-3-ol], for which the melting point turned out to be 204 °C. In addition, the EC50 in series [1] (setting [2]) is 15.8 nM.

In turn, `Cc1ccc(O)c(Cn2c(N)nc3ccc(CNc4cccc(OC(F)(F)F)c4)cc32)n1` [Compound 4, 2-{2-Amino-6-[(3-trifluoromethoxyphenylamino)-methyl]-benzoimidazol-1-ylmethyl}-6-methyl-pyridin-3-ol] gave a melting point of 156 °C. Further, in series [1] (setting [3]), the EC50 was 2.51 nM.

The compound `Cc1ccc(O)c(Cn2c(N)nc3ccc(CN(CCN4CCOCC4)c4ccccc4CCO)cc32)n1` [Compound 160, 2-(2-Amino-6-{[[2-(2-hydroxy-ethyl)-phenyl]-(2-morpholin-4-yl-ethyl)-amino]-methyl}-benzoimidazol-1-ylmethyl)-6-methyl-pyridin-3-ol] displayed a melting point of 184 °C. In series [1] (setting [4]), the EC50 was 7.94 nM.

`Cc1ccc(O)c(Cn2c(N)nc3ccc(CN(CCC(N)=O)c4cccc(Br)c4)cc32)n1` [Compound 137, 3-[[2-Amino-3-(3-hydroxy-6-methyl-pyridin-2-ylmethyl)-3H-benzoimidazol-5-ylmethyl]-(3-bromo-phenyl)-amino]-propionamide] had a melting point of 245 °C. Besides, the EC50 in series [1] (setting [4]) is 0.251 nM.

Compound `Cc1cccc(NCc2cc(C)c3nc(N)n(Cc4nc(C)ccc4O)c3c2)c1` [Compound 194, 2-[2-amino-4-methyl-6-(m-tolylamino-methyl)-benzoimidazol-1-ylmethyl]-6-methyl-pyridin-3-ol] displayed a melting point of 252 °C. For the same compound, the EC50 in series [1] (setting [2]) is 12.6 nM.

In turn, `Cc1ccc(CCCO)c(NCc2ccc3nc(N)n(Cc4nc(C)ccc4O)c3c2)c1` [Compound 90, 2-(2-amino-6-{[2-(3-hydroxy-propyl)-5-methyl-phenylamino]-methyl}-benzimidazol-1-ylmethyl)-6-methylpyridin-3-ol] registered a melting point of 248 °C. For the same compound, the EC50 in series [1] (setting [3]) is 0.0316 nM.

Consider `Cc1ccc(CCCO)c(NCc2ccc3nc(N)n(Cc4nc(C)ccc4OCc4ccccc4)c3c2)c1` [Compound 128], for which the melting point was 129 °C. Also, in series [1] (168 h, table of compound 128 (scheme E), RSV in HeLa cells, MTT, seven days after infection, read-out: Activity category (converted)), the EC50 is 126 nM.

`Cc1ccc(O)c(Cn2cnc3cc(N)ccc32)n1` [Compound 259] yielded a melting point of 248 °C. In addition, the EC50 in series [1] (setting [5]) was greater than 100000 nM.

For `Nc1nc2cc(CO)ccc2n1Cc1cccc2cccnc12` [Compound 224, (2-amino-1-quinolin-8-ylmethyl-1H-benzoimidazol-5-yl)-methanol], the melting point is greater than 260 °C. Further, the EC50 in series [1] (setting [6]) was greater than 100000 nM.

`Cc1ccc(O)c(Cn2cnc3ccc(N)cc32)n1` [Compound 261] registered a melting point greater than 250 °C. Moreover, the EC50 in series [1] (setting [5]) was greater than 100000 nM.

As to `Cc1cccc(N(CCC(=O)O)Cc2ccc3nc(N)n(Cc4nc(C)ccc4O)c3c2)c1` [Compound 161, 3-{[2-amino-3-(3-hydroxy-6-methyl-pyridin-2-ylmethyl)-3H-benzoimidazol-5-ylmethyl]-m-tolyl-amino}-propionic acid], the melting point was found to be 165 °C. The EC50 in series [1] (setting [4]) was 7.94 nM.

Turning to `Cc1cccc(N(CCN)Cc2ccc3nc(N)n(Cc4nc(C)ccc4O)c3c2)c1.Cl` [Compound 131, 2-(2-amino-6-{[(2-amino-ethyl)-m-tolyl-amino]-methyl}-benzoimidazol-1-ylmethyl)-6-methyl-pyridin-3-ol HCl salt], the melting point came to 200 °C. Besides, the EC50 in series [1] (setting [4]) is 3.98 nM.

Compound `Cc1cccc(N(CCO)Cc2ccc3nc(N)n(Cc4nc(C)ccc4O)c3c2)c1` [Compound 129, 2-(2-amino-6-{[(2-hydroxy-ethyl)-m-tolyl-amino]-methyl}-benzoimidazol-1-ylmethyl)-6-methyl-pyridin-3-ol] registered a melting point of 210 °C. Moreover, the EC50 in series [1] (setting [4]) was 0.501 nM.

In turn, `Cc1cccc(N(CCCO)Cc2ccc3nc(N)n(Cc4cccc5cccnc45)c3c2)c1` [Compound 205, 3-[(2-amino-3-quinolin-8-ylmethyl-3H-benzoimidazol-5-ylmethyl)-m-tolyl-amino]-propan-1-ol] came in with a melting point of 191 °C. Also, in series [1] (setting [6]), the EC50 is 50.1 nM.

In the case of `CC(=O)O.Cc1ccc(O)c(Cn2c(N)nc3ccc(CNc4ccccc4C)cc32)n1` [Compound 8, 2-[2-Amino-6-(o-tolylamino-methyl)-benzoimidazol-1-ylmethyl]-6-methyl-pyridin-3-ol acetic acid salt], the melting point came out at 120 °C. In series [1] (setting [3]), the EC50 was 3.16 nM.

The compound `Cc1ccc(O)c(Cn2c(N)nc3ccc(Cn4c(=O)n(C5CC5)c5ccncc54)cc32)n1` [Compound 183] came in with a melting point greater than 250 °C. Further, the EC50 in series [1] (168 h, Table 3b, RSV in HeLa cells, MTT, seven days after infection, pEC50 = -log of EC50 in molar units, read-out: Activity (converted)) was 39.8 nM.

For the compound `Cc1ccc(O)c(Cn2c(N)nc3ccc(CN(CCCCO)c4cccc(Br)c4)cc32)n1` [Compound 139, 2-(2-Amino-6-{[(3-bromo-phenyl)-(4-hydroxy-butyl)-amino]-methyl}-benzoimidazol-1-ylmethyl)-6-methyl-pyridin-3-ol], the melting point stood at 120 °C. In series [1] (setting [4]), the EC50 was 0.398 nM.

The values above are taken from patent publication US8044073B2, “Aminobenzimidazoles and benzimidazoles as inhibitors of respiratory syncytial virus replication” (Tibotec Pharmaceuticals, priority 2003, dated 2011).
